Test results as given in US12281079B2, “Quinoline derivatives, processes for their preparation and uses thereof for the treatment of cancer” (Lead Discovery Center GmbH, priority 2019, dated 2025).

Legend:
[1] = test system: mitochondrial transcription (7S RNA) in HeLa cells; experiment: Quantitative real time-PCR assay of inhibition of mitochondrial transcription (7S RNA) in HeLa cells; type: cell-based; details: Homo sapiens, 4 h compound incubation, according to Example 5, read-out: cellular qPCR assay
Method: Quantitative real-time PCR (qRT-PCR), based on the TaqMan™ (Thermo Fisher Scientific, Waltham Mass.) technology, was carried out essentially as described in Held et al. (1996). HeLa cells were plated one day before compound treatment in RPMI medium supplemented with 10% Fetal Calf Serum and 2 mM L-glutamine. Cells were incubated with dilution series of compounds or vehicle (DMSO) for 4 h, prior to harvest and extraction of the RNA using the RNeasy Mini Kit (Qiagen, Hilden D), according to the manufacturer's instructions. RNA concentrations were measured spectroscopically, using a NanoDrop-2000 (Thermo Fisher Scientific, Waltham Mass.) and normalized prior to cDNA synthesis, using a ‘High-Capacity cDNA Reverse Transcription Kit’ (Thermo Fisher Scientific, Waltham Mass.). qRT-PCR was carried out using the ‘TaqMan Fast Advance Master Mix’ (Thermo Fisher Scientific, Waltham Mass.) on a 7500 Fast Real-Time PCR machine (Applied Biosystems, Foster City Calif.)
For these measurements, three genes were used to compare the effect of the scrutinized compounds in relation to their concentration. The POLRMT-gene was used to detect potential influences on nuclear transcription. Mitochondrial transcription in vivo was monitored by measurements 7S RNA. The TBP (TATA-box binding protein) gene was employed as the control (housekeeping gene) during qRT-PCR. The short-lived mitochondrial 7S RNA, which is not post-transcriptionally stabilized, allowed us to monitor rapid changes in mitochondrial transcription activity following compound addition. Biological triplicates were analyzed using the comparative CT Method (ΔΔCt) method (Bubner and Baldwin, 2004) and reported as Rq % values (Rq=Relative quantification=2−ΔΔCt).

[2] = biological target: mitochondrial RNA polymerase (POLRMT) (Mus musculus, UniProt Q8BKF1); experiment: Homogeneous TR-FRET assay for mitochondrial transcription activity; type: biochemical; details: homogeneous TR-FRET assay according to Example 4
From the text: The TR-FRET assay was basically conducted as described in WO2016/193231A1, especially as described in example 1 (hereby incorporated by reference). With respect to the back ground of the mitochondrial transcription it is referred to Falkenberg et al. (2002) and Posse et al. (Posse et al., 2015). The method monitors the activity of mitochondrial RNA-polymerase via detection of the formation of its product, a 407 bp long RNA sequence. Detection of the product is facilitated by hybridization of two DNA-oligonucleotide probes to specific and adjacent sequences within the RNA product sequence. Upon annealing of the probes, two fluorophores that are coupled directly to an acceptor nucleotide probe (ATT0647, 5′) or introduced via a coupled streptavidin interacting with a biotinylated donor nucleotide probe on the other side (Europium cryptate, 3′) are brought into sufficient proximity to serve as a fluorescence-donor-acceptor pair as generally described in Walters and Namchuk (2003). Thus, a FRET signal at 665 nm is generated upon excitation at 340 nm.
Briefly, the protocol described here was applied for screening and activity determination in a low-volume 384-well microtiter plate with non-binding surface. For high-throughput application in the 1536-well microtiter plate format, volumes of the reagent mixes were adjusted, maintaining the volumetric ratio. Proteins POLRMT (NM_172551.3), TFAM (NM_009360.4) and TFB2M (NM_008249.4) were diluted from their stocks to working concentrations of 150 nM, 1.8 μM and 330 nM respectively, in a dilution buffer containing 100 mM Tris-HCl pH 8.0, 200 mM NaCl, 10% (v/v) glycerole, 2 mM glutathione (GSH), 0.5 mM EDTA and 0.1 mg/mL BSA. Protein dilutions and template DNA, comprising a pUC18 plasmid encoding the mitochondrial light strand promoter, restriction linearized proximal to the promoter 3′-end (pUC-LSP), were mixed at the twofold final assay-concentration in a reaction buffer, containing 10 mM Tris-HCl pH 7.5, 10 mM MgCl2, 40 mM NaCl, 2 mM GSH, 0.01% (w/v) Tween-20 and 0.1 mg/mL BSA.
5 μL of this mix were dispensed, depending on the chosen microtiter plate format, using multi-channel pipettes or a Multidrop® dispenser (Thermo Fisher Scientific, Waltham Mass.) into the wells of a microtiter plate and incubated at room temperature (rt) for 10 min. Chemical compounds under scrutiny in the assay were applied using contact-free acoustic droplet-dispensing (Echo520® Labcyte Inc., Sunnyvale Calif.) from 10 mM compound stocks in 100% DMSO, to a final concentration of 10 μM or in serial dilution series of the required concentration range. Equal amounts of DMSO without any compound were added to positive control samples, followed by an incubation step at rt for 10 min.
The enzymatic reaction was started by the addition of 5 μL of a mix of dNTPs in reaction buffer to a final concentration of 500 μM each. No nucleotide mix was added to negative control samples. The content of the wells was mixed using a VarioTeleshaker™ (Thermo Fisher Scientific, Waltham Mass.) at 1500 rpm for 45 sec after which the microtiter plate was centrifuged at 500×g for 1 min. The samples were incubated for 2 h at rt with humidity control to avoid evaporation. The detection reagents were prepared in a buffer that was composed, such that the enzymatic reaction was terminated due to chelating of Mg-ions and increased ionic strength, containing 50 mM Tris-HCl pH 7.5, 700 mM NaCl, 20 mM EDTA, and 0.01% (w/v) Tween-20. Importantly Eu-cryptate-coupled streptavidin had to be preincubated with a 100-fold molar excess of a random sequence oligonucleotide for 10 min at rt in the dark to block unspecific binding of single stranded RNA to the protein. Subsequently, the blocked streptavidin(-Eu) was mixed with the DNA-probes on ice and kept away from light until use. […]

mitochondrial RNA polymerase (POLRMT), sequence (Q8BKF1 42-1207): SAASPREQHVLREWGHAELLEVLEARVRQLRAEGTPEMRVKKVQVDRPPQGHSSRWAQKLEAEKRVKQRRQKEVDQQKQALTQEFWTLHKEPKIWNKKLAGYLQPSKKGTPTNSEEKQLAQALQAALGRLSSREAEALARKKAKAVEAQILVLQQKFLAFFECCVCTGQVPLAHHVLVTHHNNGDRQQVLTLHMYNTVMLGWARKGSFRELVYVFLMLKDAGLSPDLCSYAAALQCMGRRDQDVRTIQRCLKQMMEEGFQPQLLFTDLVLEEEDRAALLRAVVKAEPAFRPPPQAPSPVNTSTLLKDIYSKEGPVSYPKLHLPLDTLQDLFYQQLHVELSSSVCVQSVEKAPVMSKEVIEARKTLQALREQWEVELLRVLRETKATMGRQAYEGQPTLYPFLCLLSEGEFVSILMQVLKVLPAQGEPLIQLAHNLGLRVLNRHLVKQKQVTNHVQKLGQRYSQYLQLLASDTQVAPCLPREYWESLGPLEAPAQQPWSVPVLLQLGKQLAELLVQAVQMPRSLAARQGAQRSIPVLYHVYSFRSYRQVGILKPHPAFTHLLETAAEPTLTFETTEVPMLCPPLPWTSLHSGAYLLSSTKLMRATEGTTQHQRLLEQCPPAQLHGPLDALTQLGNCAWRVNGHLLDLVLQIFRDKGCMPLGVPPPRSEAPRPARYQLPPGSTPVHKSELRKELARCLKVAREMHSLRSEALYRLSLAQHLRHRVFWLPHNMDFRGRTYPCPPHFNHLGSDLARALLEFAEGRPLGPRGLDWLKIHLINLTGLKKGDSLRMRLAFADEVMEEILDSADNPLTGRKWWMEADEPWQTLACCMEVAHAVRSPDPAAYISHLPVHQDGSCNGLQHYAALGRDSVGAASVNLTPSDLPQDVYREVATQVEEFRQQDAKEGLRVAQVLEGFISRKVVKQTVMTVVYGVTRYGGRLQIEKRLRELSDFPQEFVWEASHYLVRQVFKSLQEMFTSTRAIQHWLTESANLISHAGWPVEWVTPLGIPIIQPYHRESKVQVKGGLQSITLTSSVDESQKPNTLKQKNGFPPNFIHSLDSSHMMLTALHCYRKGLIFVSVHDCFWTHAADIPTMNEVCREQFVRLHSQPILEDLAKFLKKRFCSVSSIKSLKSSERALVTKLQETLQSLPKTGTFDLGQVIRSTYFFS

SMILES | IC50 [1] [nM] | IC50 [2] [nM]
Cc1cc(F)cc(C)c1-c1ccnc2cc(O[C@H](C)C(=O)N3CCCC4(CC4C(=O)O)C3)ccc12 (mixture of isomers) [Compound 174, 5-[rac-(2R)-2-[[4-(4-fluoro-2,6-dimethyl-phenyl)-7-quinolyl]oxy]propanoyl]-5-azaspiro[2.5]octane-2-carboxylic acid] | < 10 | < 20
C[C@@H](Oc1ccc2c(-c3c(Cl)cc(F)cc3Cl)ccnc2c1)C(=O)N1CCCC(C2(C(=O)O)CC2)C1 (mixture of isomers) [Compound 196, 1-[1-[rac-(2R)-2-[[4-(2,6-dichloro-4-fluoro-phenyl)-7-quinolyl]oxy]propanoyl]-3-piperidyl]cyclopropanecarboxylic acid] | 10 to 50 | 20 to 100
C[C@@H](Oc1ccc2c(-c3ccc(F)cc3Cl)ccnc2c1)C(=O)N1CCCC(S(N)(=O)=O)C1 (mixture of isomers) [Compound 33, 1-[rac-(2R)-2-[[4-(2-chloro-4-fluoro-phenyl)-7-quinolyl]oxy]propanoyl]piperidine-3-sulfonamide] | < 10 | 100 to 1000
CC(Oc1ccc2c(-c3ccc(F)cc3Cl)ccnc2n1)C(=O)N1CCC[C@H](C(=O)O)C1 (mixture of isomers) [Compound 62, (3S)-1-[2-[[5-(2-chloro-4-fluoro-phenyl)-1,8-naphthyridin-2-yl]oxy]propanoyl]piperidine-3-carboxylic acid] | 10 to 50 | 100 to 1000
CC(Oc1ccc2c(-c3ccc(F)cc3Cl)ccnc2n1)C(=O)N1CCC[C@H](CC(=O)O)C1 (mixture of isomers) [Compound 80, 2-[rac-(3R)-1-[2-[[5-(2-chloro-4-fluoro-phenyl)-1,8-naphthyridin-2-yl]oxy]propanoyl]-3-piperidyl]acetic acid] | 50 to 500 | 1000 to 10000
Cc1cccc(C)c1-c1ccnc2cc(O[C@H](C)C(=O)N3CCCC(S(N)(=O)=O)C3)ccc12 (mixture of isomers) [Compound 119, 1-[rac-(2R)-2-[[4-(2,6-dimethylphenyl)-7-quinolyl]oxy]propanoyl]piperidine-3-sulfonamide] | < 10 | < 20
C[C@@H](Oc1ccc2c(-c3ccc(F)cc3Cl)ccnc2c1)C(=O)N1CCCC(CS(N)(=O)=O)C1 (mixture of isomers) [Compound 123, [1-[rac-(2R)-2-[[4-(2-chloro-4-fluoro-phenyl)-7-quinolyl]oxy]propanoyl]-3-piperidyl]methanesulfonamide] | 50 to 500 | 100 to 1000
C[C@@H](Oc1ccc2c(-c3c(Cl)cc(F)cc3Cl)ccnc2c1)C(=O)N1CCCC2(CC2C(=O)O)C1 (mixture of isomers) [Compound 177, 5-[rac-(2R)-2-[[4-(2,6-dichloro-4-fluoro-phenyl)-7-quinolyl]oxy]propanoyl]-5-azaspiro[2.5]octane-2-carboxylic acid] | < 10 | < 20
Cc1cc(F)cc(C)c1-c1ccnc2cc(O[C@H](C)C(=O)N3CCCC(C4(O)CC4)C3)ccc12 (mixture of isomers) [Compound 180, rac-(2R)-2-[[4-(4-fluoro-2,6-dimethyl-phenyl)-7-quinolyl]oxy]-1-[3-(1-hydroxycyclopropyl)-1-piperidyl]propan-1-one] | < 10 | < 20
Cc1cc(F)cc(C)c1-c1ccnc2cc(O[C@H](C)C(=O)N3CCCC(C4(C(=O)O)CC4)C3)ccc12 (mixture of isomers) [Compound 182, 1-[1-[rac-(2R)-2-[[4-(4-fluoro-2,6-dimethyl-phenyl)-7-quinolyl]oxy]propanoyl]-3-piperidyl]cyclopropanecarboxylic acid] | < 10 | < 20
Cc1cc(F)cc(C)c1-c1ccnc2cc(O[C@H](C)C(=O)N3CCCC(C(C)(C)C(=O)O)C3)ccc12 (mixture of isomers) [Compound 186, 2-methyl-2-[1-[rac-(2R)-2-[[4-(4-fluoro-2,6-dimethyl-phenyl)-7-quinolyl]oxy]propanoyl]-3-piperidyl]propanoic acid] | < 10 | < 20
Cc1cc(F)cc(C)c1-c1ccnc2cc(O[C@H](C)C(=O)N3C(C)CCCC3C)ccc12 (mixture of isomers) [Compound 191, rac-(2R)-1-(2,6-dimethyl-1-piperidyl)-2-[[4-(4-fluoro-2,6-dimethyl-phenyl)-7-quinolyl]oxy]propan-1-one] | < 10 | < 20
C[C@@H](Oc1ccc2c(-c3ccc(F)cc3Cl)ccnc2c1)C(=O)N1CCCC(C2(C(=O)O)CC2)C1 (mixture of isomers) [Compound 194, 1-[1-[rac-(2R)-2-[[4-(2-chloro-4-fluoro-phenyl)-7-quinolyl]oxy]propanoyl]-3-piperidyl]cyclopropanecarboxylic acid] | 10 to 50 | 20 to 100
CC1CCCCN1C(=O)[C@@H](C)Oc1ccc2c(-c3ccc(F)cc3Cl)ccnc2c1 (mixture of isomers) [Compound 200, rac-(2R)-2-[[4-(2-chloro-4-fluoro-phenyl)-7-quinolyl]oxy]-1-(2-methyl-1-piperidyl)propan-1-one] | < 10 | 20 to 100
COc1cccc(Cl)c1-c1ccnc2cc(O[C@H](C)C(=O)N3CCC[C@H](CC(=O)O)C3)ccc12 [Compound 152, 2-[(3R)-1-[(2R)-2-[[4-(2-chloro-6-methoxy-phenyl)-7-quinolyl]oxy]propanoyl]-3-piperidyl]acetic acid] |  | 1000 to 10000
Cc1cccc(C)c1-c1ccnc2cc(O[C@H](C)C(=O)N3CCC[C@@H](S(N)(=O)=O)C3)ccc12 [Compound 172, (3R)-1-[(2R)-2-[[4-(2,6-dimethylphenyl)-7-quinolyl]oxy]propanoyl]piperidine-3-sulfonamide] |  | < 20
C[C@@H](Oc1ccc2c(-c3ccc(F)cc3Cl)ccnc2c1)C(=O)N1C[C@H]2C[C@@H]1CN2 [Compound 217, (2R)-2-[[4-(2-chloro-4-fluoro-phenyl)-7-quinolyl]oxy]-1-[(1R)-2,5-diazabicyclo[2.2.1]heptan-2-yl]propan-1-one] |  | 1000 to 10000
C[C@@H](Oc1ccc2c(-c3ccc(F)cc3Cl)ccnc2c1)C(=O)N1CC2(COC2)C1 [Compound 218, (2R)-2-[[4-(2-chloro-4-fluoro-phenyl)-7-quinolyl]oxy]-1-(2-oxa-6-azaspiro[3.3]heptan-6-yl)propan-1-one] |  | 1000 to 10000
